# From US6866857B1, “Oxalipatinum preparation packaging” (Debiopharm S.A., priority 1998, dated 2005)
# Entries after “also recorded” stand apart in the source; their conditions may differ.
# Experiments:
# [1] = tolerance of aqueous oxaliplatinum preparations to contact with PVC-based materials; format: physicochemical; conditions: pharmaceutical preparations in aqueous solution
# [2] = accelerated stability study of liquid oxaliplatinum solution packed in flexible bag; format: physicochemical; conditions: for Appearance of the solution / pH / Impurities by HPLC (%) / L-OHP titre/standard (%) / Oxalic acid titre (%): 2 mg/ml solution, 40° C.
# [3] = 6 Months, HPLC, PA 11/PP bag, 75% RH
# [4] = 12 Months, PA 11/PP bag, 75% RH
# [5] = 12 Months, HPLC, PA 11/PP bag, 75% RH
# [6] = Week 0, HPLC, PA 11/PP bag, 75% RH
# [7] = Week 1, HPLC, PA 11/PP bag, 75% RH
# [8] = Week 2, HPLC, PA 11/PP bag, 75% RH
# [9] = Week 3, HPLC, PA 11/PP bag, 75% RH
# [10] = Week 4, HPLC, PA 11/PP bag, 75% RH
# [11] = Week 5, HPLC, PA 11/PP bag, 75% RH
# [12] = Week 12, HPLC, PA 11/PP bag, 75% RH
smiles,measurement,setting,value
"O=C1[O][Pt]2([NH][C@@H]3CCCC[C@H]3[NH]2)[O]C1=O (relative stereo) [oxaliplatinum, cis-oxalato(trans-1-1-diaminocyclohexane) platinum(II)]",tolerance of contact with PVC-based materials,[1],cannot tolerate being in contact with PVC-based materials
same,Appearance of the solution,"[2]; 6 Months, PA 11/PP bag, 75% RH","Clear,"
same,pH,"[2]; 6 Months, PA 11/PP bag, 75% RH",5.20
same,Impurities by HPLC (%),[2]; [3],0.5%
same,L-OHP titre/standard (%),[2]; [3],98.9%
same,Oxalic acid titre (%),[2]; [3],<0.1%
same,Appearance of the solution,[2]; [4],"Clear,"
same,pH,[2]; [4],5.30
same,Impurities by HPLC (%),[2]; [5],0.6%
same,L-OHP titre/standard (%),[2]; [5],98.5%
same,Oxalic acid titre (%),[2]; [5],<0.1%
same,maximum percentage of apparent impurities,[2]; HPLC,≤ 2%
same,Appearance of the solution,"[2]; Week 0, 100 ml PA 11/PP bag, 75% relative humidity","Clear,"
same,pH,"[2]; Week 0, PA 11/PP bag, 75% RH",5.56
same,Impurities by HPLC (%),[2]; [6],0.10%
same,L-OHP titre/standard (%),[2]; [6],99.7%
same,Oxalic acid titre (%),[2]; [6],<0.1%
same,Appearance of the solution,"[2]; Week 1, PA 11/PP bag, 75% RH","Clear,"
same,pH,"[2]; Week 1, PA 11/PP bag, 75% RH",5.10
same,Impurities by HPLC (%),[2]; [7],0.60%
same,L-OHP titre/standard (%),[2]; [7],100.1%
same,Oxalic acid titre (%),[2]; [7],<0.1%
same,Appearance of the solution,"[2]; Week 2, PA 11/PP bag, 75% RH","Clear,"
same,pH,"[2]; Week 2, PA 11/PP bag, 75% RH",5.24
same,Impurities by HPLC (%),[2]; [8],0.50%
same,L-OHP titre/standard (%),[2]; [8],100.0%
same,Oxalic acid titre (%),[2]; [8],<0.1%
same,Appearance of the solution,"[2]; Week 3, PA 11/PP bag, 75% RH","Clear,"
same,pH,"[2]; Week 3, PA 11/PP bag, 75% RH",5.22
same,Impurities by HPLC (%),[2]; [9],0.50%
same,L-OHP titre/standard (%),[2]; [9],100.9%
same,Oxalic acid titre (%),[2]; [9],<0.1%
same,Appearance of the solution,"[2]; Week 4, PA 11/PP bag, 75% RH","Clear,"
same,Impurities by HPLC (%),[2]; [10],0.48%
same,L-OHP titre/standard (%),[2]; [10],99.3%
same,Oxalic acid titre (%),[2]; [10],<0.1%
same,Appearance of the solution,"[2]; Week 5, PA 11/PP bag, 75% RH","Clear,"
same,pH,"[2]; Week 5, PA 11/PP bag, 75% RH",5.23
same,Impurities by HPLC (%),[2]; [11],0.45%
same,L-OHP titre/standard (%),[2]; [11],97.7%
same,Oxalic acid titre (%),[2]; [11],<0.1%
same,Appearance of the solution,"[2]; Week 12, PA 11/PP bag, 75% RH","Clear,"
same,pH,"[2]; Week 12, PA 11/PP bag, 75% RH",5.35
same,Impurities by HPLC (%),[2]; [12],0.40%
same,L-OHP titre/standard (%),[2]; [12],99.3%
same,Oxalic acid titre (%),[2]; [12],<0.1%
same,period of stability of the liquid solution packed in a flexible bag,[2]; liquid solution in flexible bag,"stable for a period extending to more than three months, and even to more than six months; also recorded: stable for at least one year"
same,appearance of the solution over the whole period,"[2]; observed for twelve months, flexible bag",clarity and the absence of coloration
same,stability compared with solution packed in a glass bottle,"[2]; same conditions, FIG. 6 vs FIG. 7",stability analogous
